Reference: ChEMBL document CHEMBL1201862, “PubChem BioAssay data set” (2004)
Calls of active or inactive are those of the source.

Key:
[1] = target: T1, Carboxy-terminal domain RNA polymerase II polypeptide A small phosphatase 1 (Homo sapiens, UniProt Q9GZU7); experiment: inhibitors of CTDSP1, concentration-response testing, biochemical assay, absorbance-based, actives from ultra-high-throughput screening (AID 540297); assay type: functional
T1 sequence (Q9GZU7 whole entry): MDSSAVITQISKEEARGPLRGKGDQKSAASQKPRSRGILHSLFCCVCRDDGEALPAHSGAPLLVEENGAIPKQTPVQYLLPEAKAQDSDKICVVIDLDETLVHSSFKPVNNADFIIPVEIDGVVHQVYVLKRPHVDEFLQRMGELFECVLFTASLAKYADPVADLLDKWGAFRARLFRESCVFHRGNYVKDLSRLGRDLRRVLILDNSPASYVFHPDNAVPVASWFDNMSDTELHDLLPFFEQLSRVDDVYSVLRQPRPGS

BJ [2] = experiment: cytotoxicity toward BJ-TERT fibroblasts, dose response, cell-based, RAS-independent, luminescence (AID 1933); assay type: functional; conditions: Homo sapiens
BJ [3] = experiment: cells; assay type: functional, cell-based; conditions: Homo sapiens
BJ [4] = experiment: cytotoxicity toward BJ-TERT-LT-ST fibroblasts, dose response, cell-based, RAS-independent, luminescence (AID 1935); assay type: functional; conditions: Homo sapiens;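 further: BJ fibroblasts immortalized with TERT plus LT and ST oncogenes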
[5] = cytotoxicity toward DRD oncogenic fibroblasts, dose response, cell-based, non-viral oncogenic, luminescence (AID 1934); assay type: functional; conditions: Homo sapiens
[6] = target: T2, Heat shock factor protein 1 (Mus musculus, UniProt P38532); experiment: inhibition of MG132-induced HSE-luciferase signal, confirmation, cell-based, NIH3T3, luminescence, dose retest (AID 2382); assay type: functional;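 further: NIH3T3 fibroblasts with HSF1-driven luciferase reporter stressed by proteasome inhibitor MG132; luminescence from HSF1-driven luciferase expression after 8 hours of MG132 stress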
T2 sequence (P38532 whole entry): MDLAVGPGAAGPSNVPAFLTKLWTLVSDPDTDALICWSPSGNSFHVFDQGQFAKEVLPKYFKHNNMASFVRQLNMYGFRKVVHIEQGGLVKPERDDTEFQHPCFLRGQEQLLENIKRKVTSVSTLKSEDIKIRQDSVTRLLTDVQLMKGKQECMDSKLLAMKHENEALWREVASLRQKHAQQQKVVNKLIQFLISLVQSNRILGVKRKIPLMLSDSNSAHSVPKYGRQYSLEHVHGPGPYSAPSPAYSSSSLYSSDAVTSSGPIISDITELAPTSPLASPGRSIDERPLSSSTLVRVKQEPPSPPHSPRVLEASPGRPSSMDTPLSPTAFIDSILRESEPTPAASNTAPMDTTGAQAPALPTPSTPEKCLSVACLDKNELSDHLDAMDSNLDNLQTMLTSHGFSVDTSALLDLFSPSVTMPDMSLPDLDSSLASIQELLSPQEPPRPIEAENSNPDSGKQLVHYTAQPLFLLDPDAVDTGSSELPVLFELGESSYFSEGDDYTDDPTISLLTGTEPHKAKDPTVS

[7] = target: T3, Corticotropin-releasing factor receptor 2/Corticotropin-releasing factor-binding protein (Homo sapiens, UniProt P24387+Q13324); experiment: activators of CRF receptor 2 with binding protein – uHTS hits, confirmation (AID 602473); assay type: functional; conditions: read-out: EC50_Mean
T3 sequence (Q13324 whole entry): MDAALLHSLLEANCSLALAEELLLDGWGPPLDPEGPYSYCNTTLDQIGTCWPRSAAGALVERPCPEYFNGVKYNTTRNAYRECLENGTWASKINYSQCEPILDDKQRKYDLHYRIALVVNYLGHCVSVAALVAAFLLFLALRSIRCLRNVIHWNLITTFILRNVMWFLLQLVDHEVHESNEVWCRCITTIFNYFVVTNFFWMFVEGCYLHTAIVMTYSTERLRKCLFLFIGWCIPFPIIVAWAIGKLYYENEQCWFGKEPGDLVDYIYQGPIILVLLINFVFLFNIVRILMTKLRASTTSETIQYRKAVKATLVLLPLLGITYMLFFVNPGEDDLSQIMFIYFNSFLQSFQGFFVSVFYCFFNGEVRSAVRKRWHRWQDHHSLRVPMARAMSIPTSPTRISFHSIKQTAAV
T3 sequence (P24387 whole entry): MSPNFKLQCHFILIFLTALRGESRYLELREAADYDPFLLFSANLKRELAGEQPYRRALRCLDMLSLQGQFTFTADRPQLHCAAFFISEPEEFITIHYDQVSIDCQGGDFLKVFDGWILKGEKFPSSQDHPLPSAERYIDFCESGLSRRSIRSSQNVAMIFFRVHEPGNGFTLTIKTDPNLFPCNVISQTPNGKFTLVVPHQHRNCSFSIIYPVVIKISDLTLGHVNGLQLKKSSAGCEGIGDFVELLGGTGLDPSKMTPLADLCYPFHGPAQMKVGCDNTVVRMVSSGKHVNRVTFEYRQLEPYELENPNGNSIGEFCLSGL

Nonstructural protein 1 = Nonstructural protein 1 (Influenza A virus, UniProt Q194T2); assay type: functional, Influenza A virus (A/California/07/2009(H1N1))
Nonstructural protein 1, sequence (Q194T2 whole entry): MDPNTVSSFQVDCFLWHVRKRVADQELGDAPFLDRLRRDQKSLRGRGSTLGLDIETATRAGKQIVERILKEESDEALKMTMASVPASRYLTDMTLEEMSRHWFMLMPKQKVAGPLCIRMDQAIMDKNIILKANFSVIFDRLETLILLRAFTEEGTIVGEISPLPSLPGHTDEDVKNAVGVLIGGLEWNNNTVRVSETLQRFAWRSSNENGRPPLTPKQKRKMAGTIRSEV

[8] = THP-1 cell cytotoxicity, dose response, cytotoxicity control for non-replicating M. tuberculosis project (AID 489025); assay type: functional
cells = assay type: functional
[9] = inhibitors of intracellular T. cruzi replication, confirmation, NIH3T3 host cells, beta-gal luminescence (AID 2044); assay type: functional, cell-based;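 further: intracellular parasites grown in NIH/3T3 mouse fibroblasts as host cells; luminescent beta-galactosidase reporter signal from transgenic T. cruzi replicating inside host cells; inhibitors lower the luminescence signal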
[10] = cytotoxicity toward NIH3T3 fibroblasts, dose response, counter-screen, cell-based, ATP luminescence, mouse fibroblasts (AID 2010); assay type: functional;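 further: cells exposed to compound for about 90 hours before reading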
Large T antigen = Large T antigen (Simian virus 40, UniProt P03070); assay type: functional, Betapolyomavirus macacae;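 further: Confirmatory-stage PubChem screen for compounds that inhibit SV40 T antigen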
Large T antigen, sequence (P03070 whole entry): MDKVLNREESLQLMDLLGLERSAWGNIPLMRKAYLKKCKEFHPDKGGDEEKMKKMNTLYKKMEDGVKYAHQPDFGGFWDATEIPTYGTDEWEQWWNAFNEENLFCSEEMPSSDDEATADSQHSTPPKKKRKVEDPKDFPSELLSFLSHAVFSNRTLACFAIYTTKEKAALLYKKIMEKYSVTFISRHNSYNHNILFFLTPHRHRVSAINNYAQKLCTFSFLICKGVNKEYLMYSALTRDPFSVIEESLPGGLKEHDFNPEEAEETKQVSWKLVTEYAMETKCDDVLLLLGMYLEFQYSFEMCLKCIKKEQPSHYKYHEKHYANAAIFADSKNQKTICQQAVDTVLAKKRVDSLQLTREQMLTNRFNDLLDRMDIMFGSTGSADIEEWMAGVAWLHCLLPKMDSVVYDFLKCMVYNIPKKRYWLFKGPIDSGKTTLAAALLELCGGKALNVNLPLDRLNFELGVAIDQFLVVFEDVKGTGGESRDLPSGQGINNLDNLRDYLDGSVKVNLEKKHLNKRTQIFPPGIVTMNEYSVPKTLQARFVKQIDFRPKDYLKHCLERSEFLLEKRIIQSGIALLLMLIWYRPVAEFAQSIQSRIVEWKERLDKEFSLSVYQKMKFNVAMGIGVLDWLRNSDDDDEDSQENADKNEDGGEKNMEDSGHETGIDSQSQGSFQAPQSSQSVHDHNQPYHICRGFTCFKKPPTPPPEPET

[11] = target: FAD-linked sulfhydryl oxidase ALR (Homo sapiens, UniProt P55789); experiment: inhibitors of human ALR sulfhydryl oxidase, dose response, biochemical, H2O2 detection, luminescence, cherry-pick (AID 493248)
FAD-linked sulfhydryl oxidase ALR, sequence (P55789 whole entry): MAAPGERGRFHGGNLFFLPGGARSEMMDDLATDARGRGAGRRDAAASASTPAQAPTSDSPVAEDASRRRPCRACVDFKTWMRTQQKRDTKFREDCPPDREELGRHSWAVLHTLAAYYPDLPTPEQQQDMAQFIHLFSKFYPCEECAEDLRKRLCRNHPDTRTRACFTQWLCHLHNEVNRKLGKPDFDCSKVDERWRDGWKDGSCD

[12] = HEp-2 cell cytotoxicity, dose response, cytotoxicity control for RSV inhibitor project, HTS (AID 2410); assay type: functional; conditions: human respiratory syncytial virus
Protein skinhead-1 = target: T4, Protein skinhead-1 (Caenorhabditis elegans, UniProt P34707); assay type: functional
T4 sequence (P34707 whole entry): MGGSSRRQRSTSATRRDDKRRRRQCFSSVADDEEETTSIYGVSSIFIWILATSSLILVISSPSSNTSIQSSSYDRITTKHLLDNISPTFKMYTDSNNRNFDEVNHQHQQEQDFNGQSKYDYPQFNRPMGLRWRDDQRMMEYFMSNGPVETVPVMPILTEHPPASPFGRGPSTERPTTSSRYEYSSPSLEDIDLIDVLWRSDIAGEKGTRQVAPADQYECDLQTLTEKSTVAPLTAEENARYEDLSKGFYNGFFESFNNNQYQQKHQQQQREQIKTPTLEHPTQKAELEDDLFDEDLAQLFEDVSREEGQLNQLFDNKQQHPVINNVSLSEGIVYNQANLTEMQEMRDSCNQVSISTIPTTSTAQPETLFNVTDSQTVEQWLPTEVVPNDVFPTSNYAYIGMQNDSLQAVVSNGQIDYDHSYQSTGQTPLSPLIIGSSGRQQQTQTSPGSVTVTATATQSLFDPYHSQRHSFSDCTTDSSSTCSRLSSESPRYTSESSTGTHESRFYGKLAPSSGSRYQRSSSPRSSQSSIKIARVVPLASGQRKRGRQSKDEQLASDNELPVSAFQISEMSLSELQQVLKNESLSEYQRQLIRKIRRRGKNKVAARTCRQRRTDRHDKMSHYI

INS1 = experiment: beta cell apoptosis inhibitors, cytokine rescue, dose response, luminescence, retest (AID 449756); assay type: functional, cell-based; conditions: Rattus norvegicus;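 further: cell death triggered by IL-1 beta plus TNF-alpha plus IFN-gamma mixture; protective hits raise ATP signal compared with cytokine alone wells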
[13] = Shn3 3'UTR reporter inhibitors, dose response, cell-based, Clone20 osteoblasts, firefly luciferase, cherry-picked (AID 624132); assay type: functional;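 further: firefly luciferase luminescence from reporter carrying the Shn3 3'UTR in osteoblasts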
[14] = HepG2 cell cytotoxicity, dose response, cytotoxicity control for Shn3 inhibitor project, CellTiter-Glo, cherry-picked (AID 624134); assay type: functional, cell-based
[15] = target: T5, Rac GTPase-activating protein 1 (Homo sapiens, UniProt Q9H0H5); experiment: MgcRacGAP GTPase-activating activity inhibitors, confirmation, biochemical, ADP Hunter fluorescence, primary and confirmatory (AID 624330); assay type: functional
T5 sequence (Q9H0H5 whole entry): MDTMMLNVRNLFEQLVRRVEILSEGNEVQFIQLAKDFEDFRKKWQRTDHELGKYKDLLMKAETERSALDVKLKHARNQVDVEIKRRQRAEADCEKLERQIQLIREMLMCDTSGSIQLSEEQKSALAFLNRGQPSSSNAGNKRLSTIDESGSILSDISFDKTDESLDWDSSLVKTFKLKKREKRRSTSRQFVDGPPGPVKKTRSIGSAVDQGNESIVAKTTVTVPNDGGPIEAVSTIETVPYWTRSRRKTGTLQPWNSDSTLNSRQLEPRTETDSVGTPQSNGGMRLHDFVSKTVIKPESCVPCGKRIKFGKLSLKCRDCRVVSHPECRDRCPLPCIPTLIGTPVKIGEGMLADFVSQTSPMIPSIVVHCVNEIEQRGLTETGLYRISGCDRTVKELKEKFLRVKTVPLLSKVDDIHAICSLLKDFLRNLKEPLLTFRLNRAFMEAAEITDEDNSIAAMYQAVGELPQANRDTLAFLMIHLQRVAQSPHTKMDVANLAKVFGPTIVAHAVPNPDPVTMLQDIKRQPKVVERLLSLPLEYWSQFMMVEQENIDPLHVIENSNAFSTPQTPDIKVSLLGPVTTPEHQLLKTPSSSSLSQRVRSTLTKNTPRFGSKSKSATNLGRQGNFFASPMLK

[16] = control 3'UTR Renilla luciferase suppression, dose response, counter-screen for Shn3 inhibitor project, cell-based, Clone20-Shn3RL, cherry-picked (AID 624133); assay type: functional
[17] = Luminescence Cell-Based Dose Retest to Confirm Inhibitors of Cancer Stem Cells. [Related pubchem assays (depositor defined):AID2717, AID2721]; assay type: functional; conditions: Homo sapiens

Cn1nnnc1SCC1=C(C(=O)O)N2C(=O)C(NC(=O)C3CC3c3ccccc3)C2SC1 (centres undefined)
IC50 [1]: 11.8 µM (active)

CC1=CC(C)(C)N2C(=O)C(=O)c3cc(OC(=O)c4ccco4)cc1c32
EC50 (BJ [2]): > 150 µM (not active)
EC50 (BJ [3]): 11.6 µM (active)
EC50 (BJ [4]): 11.3 µM (inconclusive)
EC50 [5]: 11.2 µM (inconclusive)

Cc1ccc(OCC(=O)NCCNC(=O)c2ccco2)cc1C
EC50 [6]: > 195 µM (not active)

Cc1ccc(S(=O)(=O)N2CCCCC2)cc1C(=O)Nc1cccnc1
IC50 [1]: 9.14 µM (active)

CCOc1ccc(NC(=O)CN2C(=O)NC(C)(c3ccc(OC(F)F)cc3)C2=O)cc1 (centres undefined)
EC50 [7]: 13.2 µM (active)

Cc1cc(C)cc(-n2c(C)cc(C(=S)N3CCOCC3)c2C)c1
IC50 (Nonstructural protein 1): 95.6 µM (active)

O=C(c1ccccc1)c1ccc(-n2ccnc2)c([N+](=O)[O-])c1
EC50 (BJ [2]): > 150 µM (not active)
EC50 (BJ [3]): > 150 µM (not active)
EC50 (BJ [4]): > 150 µM (inconclusive)
EC50 [5]: > 150 µM (not active)

COc1ccc(S(=O)(=O)N2CCCCCC2)cc1C(=O)OCC(=O)NC(C)(C)C
EC50 [6]: > 195 µM (not active)

COc1ccc(N2C(=O)c3ccccc3NC2c2ccc(OC)c(Cn3cc([N+](=O)[O-])cn3)c2)cc1 (centres undefined)
EC50 [6]: > 195 µM (not active)

CCOc1ccc2c(c1)-c1c(ssc1=S)C(C)(C)N2C
IC50 (Nonstructural protein 1): 12.8 µM (active)

Cc1ccc(NC(=O)COc2ccc(-n3ccnc3)cc2)cc1Cl
CC50 [8]: > 40 µM (active)
IC50 (cells): 25.5 µM (active)

Cc1oc(-c2cc3c(cc2Cl)OCO3)nc1CN1CCCC1c1ccc(F)cc1 (centres undefined)
EC50 [6]: > 195 µM (not active)

Cc1ccc(C(=O)NCC(=O)NCC(=O)OCC(=O)c2ccc(F)cc2)cc1
EC50 [6]: > 195 µM (not active)

Cc1ccc2[nH]c3nc(NN)nnc3c2c1
IC50 (Nonstructural protein 1): 13.5 µM (active)

Cc1ncc([N+](=O)[O-])n1CC(=O)Nc1ccc(F)cc1
EC50 [6]: 12.3 µM (active)

COc1ccc2[nH]c(C)c(CCN(Cc3cccs3)C(S)=Nc3ccccc3)c2c1
EC50 [9]: 2.82 µM (active)
EC50 [10]: > 60 µM (not active)
IC50 (Nonstructural protein 1): > 100 µM (active)

CCN1C(=O)CC(N2CCC(Nc3ccc(OC)cc3)CC2)C1=O (centres undefined)
IC50 (Large T antigen): 57.7 µM (active)
AC50 [11]: 2.09 µM (active)

COc1ccc(NC(=O)NNC(=O)c2ccc(-c3ccccc3)cc2)cc1
IC50 [1]: 4.6 µM (active)

CCOc1ccc(CC(=O)N2CCC3(CC2)NCCc2[nH]cnc23)cc1
EC50 [6]: > 195 µM (not active)

O=C(Nc1nccs1)c1ccc(-c2ccc(Cl)cc2)o1
CC50 [12]: > 50 µM (active)
CC50 [8]: > 40 µM (active)
IC50 (cells): 25.6 µM (active)
IC50 (Protein skinhead-1): > 100 µM (inactive)

CCOc1cc(C)c(S(=O)(=O)Nc2ccc3c[nH]nc3c2)cc1C
AC50 (INS1): 4.13 µM (active)
AC50 [13]: 4.89 µM (active)
AC50 [14]: 36 µM (active)

COc1cc2c(cc1N=C(S)Nc1ccccc1C)oc1ccccc12
IC50 (Large T antigen): 56.4 µM (active)
IC50 [15]: 83.9 µM (active)

Nc1ccc2cccc(O)c2c1
IC50 [1]: 4.61 µM (active)

COc1cc(OC)cc(N(C(=O)CNC(=O)c2cccs2)C(C(=O)NCC2CCCO2)c2ccc(OC)c(OC)c2)c1 (centres undefined)
EC50 [7]: > 53 µM (inactive)

COc1cccc(CNc2nc(NCC3CC3)nc3ccsc23)c1
AC50 [13]: 5.86 µM (active)
AC50 [14]: 43 µM (active)
AC50 [16]: 11.2 µM (active)

CN(C)S(=O)(=O)c1cccc(/N=c2\scc(-c3ccc4c(c3)NC(=O)CO4)n2CC2CCCO2)c1 (centres undefined)
AC50 [13]: 14 µM (active)
AC50 [16]: 22.5 µM (active)

CCCS(=O)(=O)c1c(S(=O)(=O)CCC)c2c(C)cccn2c1C(=O)N/N=C/c1cc(O)cc(O)c1
EC50 (BJ [2]): 23.5 µM (active)
EC50 (BJ [3]): 20.2 µM (active)
EC50 (BJ [4]): 18.1 µM (active)
EC50 [5]: 27 µM (active)
AC50 [17]: 2.52 µM (active)

Cc1ccc(S(=O)(=O)NC2=C(N3CCN(Cc4ccccc4)CC3)C(=O)c3ccccc3C2=O)cc1
IC50 (Nonstructural protein 1): 22.4 µM (active)

C=C[C@]1(C)C=C2C(=O)[C@@]3(O)OC(=O)[C@@]4(CCCC(C)(C)[C@H]34)[C@@]2(O)CC1 [SPHAEROPSIDIN A]
AC50 [13]: 4.98 µM (active)
AC50 [14]: 12 µM (active)
AC50 [16]: 4.85 µM (active)
